Assay results: US11952611B2, “Methods and systems for detection of antibiotic resistance” (Laboratory Corporation of America Holdings, priority 2017, dated 2024)

Columns and labels:
Type in all cases: cell-based, Staphylococcus aureus
[1] = test system: BAA-1720 - MRSA in co-culture with 12600 - MSSA; assay: Table 6, MRSA in co-culture with MSSA
Method: (§1) Bacterial strains were serially diluted and transferred to a 96-well plate at 135 μL per well. 15 μL of cefoxitin was added to the wells to reach a final concentration of 1.8 μg/mL. The plate was then sealed and incubated at 37° C. for 2 hours or 3 hours. 10 μL of recombinant phage (1.6×10^8 pfu/mL) was added to each well. The plate was then re-sealed and incubated at 37° C. for an additional 1 or 2 hours. A master mix was made containing 15 μL 5× lysis buffer, 50 μL luciferase assay buffer, and 1 μL luciferase substrate per well. 65 μL of master mix was added to each well. Luminescence from the reactions was read on a GLOMAX® Navigator and relative luminal units (RLU) for each reaction were plotted and analyzed. RLU values three times greater than an established background RLU level for LB (>750 RLU) were considered positive. The results, shown in Table 6, indicate that samples with MRSA (38 CFU) can be distinguished from samples containing MSSA (up to 5088 CFU) using a 3-hour antibiotic/1-hour phage incubation protocol. Positive results are in bold. In Table 6, CFU values (318 CFU and 156 CFU) were experimentally validated by direct plating.

MSSA = assay: Optimization of cefoxitin concentration (Table 2), MSSA strains
Method: (§2) Bacterial strains were serially diluted to approximately 1×10^3 CFU/mL and transferred to a 96-well plate at 135 μL per well. 15 μL of cefoxitin was added to the wells to reach a final concentration of 1.4 μg/mL, 1.6 μg/mL, 1.8 μg/mL or 2.0 μg/mL. The plate was then sealed and incubated at 37° C. for 2 hours. 10 μL of recombinant phage (1.6×10^8 pfu/mL) was added to each well. The plate was then re-sealed and incubated at 37° C. for an additional 2 hours. A master mix was made containing 15 μL 5× lysis buffer, 50 μL luciferase assay buffer, and 1 μL luciferase substrate per well. 65 μL of master mix was added to each well. Luminescence from the reactions were read on a GLOMAX® Navigator and relative luminal units (RLU) for each reaction were plotted and analyzed. RLU values three times greater than an established background RLU level for LB (>750 RLU) were considered positive. The results, shown in Table 2, indicate that the recombinant phage are capable of detecting these bacterial strains. […] Positive results are in bold.

12600 - MSSA = assay: Table 6, MSSA alone
Method: as §1

MRSA = assay: Optimization of cefoxitin concentration (Table 2), MRSA strains
Method: as §2

[2] = MSSA detected CFU 1272, MRSA 38
[3] = MSSA detected CFU 2544, MRSA 38
[4] = MSSA detected CFU 5088, MRSA 38
[5] = MSSA detected CFU 10176, MRSA 38
[6] = strain 12600 MSSA, detected CFU 401
[7] = strain AR0484 MSSA, detected CFU 107
[8] = strain AR0485 MSSA, detected CFU 248
[9] = strain AR0486 MSSA, detected CFU 163
[10] = strain AR0487 MSSA, detected CFU 198
[11] = strain AR0488 MSSA, detected CFU 360
[12] = strain AR0489 MSSA, detected CFU 186
[13] = strain AR0490 MSSA, detected CFU 109
[14] = strain AR0491 MSSA, detected CFU 239
[15] = strain AR0492 MSSA, detected CFU 130
[16] = strain BAA-1721 MSSA, detected CFU 166
[17] = MSSA detected CFU 10176, MRSA 0
[18] = strain AR0470 MRSA, detected CFU 314
[19] = strain BAA-2313 MRSA, detected CFU 192

CO[C@@]1(NC(=O)Cc2cccs2)C(=O)N2C(C(=O)O)=C(COC(N)=O)CS[C@@H]21 [Cefoxitin, cefoxitin] was tested, and the “2 HR AB + 2 HR Phage 1.8 ug/mL” value ([1]; MSSA detected CFU 156, MRSA 38) was 5084 RLU, the “3 HR AB + 1 HR Phage 1.8 ug/mL” value ([1]; MSSA detected CFU 156, MRSA 38) was 3976 RLU and the “2 HR AB + 2 HR Phage 1.8 ug/mL” value ([1]; MSSA detected CFU 318, MRSA 38) was 7143 RLU. For the same compound, the “3 HR AB + 1 HR Phage 1.8 ug/mL” value ([1]; MSSA detected CFU 318, MRSA 38) was 4567 RLU, the “2 HR AB + 2 HR Phage 1.8 ug/mL” value ([1]; MSSA detected CFU 636, MRSA 38) was 7217 RLU and the “3 HR AB + 1 HR Phage 1.8 ug/mL” value ([1]; MSSA detected CFU 636, MRSA 38) was 3946 RLU. The “2 HR AB + 2 HR Phage 1.8 ug/mL” value [1, 2] was 6263 RLU, the “3 HR AB + 1 HR Phage 1.8 ug/mL” value [1, 2] was 4930 RLU and the “2 HR AB + 2 HR Phage 1.8 ug/mL” value [1, 3] was 10730 RLU. For the same compound, the “3 HR AB + 1 HR Phage 1.8 ug/mL” value [1, 3] was 3749 RLU, the “2 HR AB + 2 HR Phage 1.8 ug/mL” value [1, 4] was 11400 RLU and the “3 HR AB + 1 HR Phage 1.8 ug/mL” value [1, 4] was 3548 RLU. For the same compound, the “2 HR AB + 2 HR Phage 1.8 ug/mL” value [1, 5] was 13260 RLU, the “3 HR AB + 1 HR Phage 1.8 ug/mL” value [1, 5] was 5347 RLU and the “effect on positive signal” value (MSSA; 1.8 ug/mL, most MSSA strains) was “selectively inhibit a positive signal”. The “Cefoxitin Concentration 1.4 ug/mL” value (MSSA; [6]) was 2489 RLU, the “Cefoxitin Concentration 1.6 ug/mL” value (MSSA; [6]) was 1596 RLU and the “Cefoxitin Concentration 1.8 ug/mL” value (MSSA; [6]) was 974 RLU. For the same compound, the “Cefoxitin Concentration 2 ug/mL” value (MSSA; [6]) was 750 RLU, the “Cefoxitin Concentration 1.4 ug/mL” value (MSSA; [7]) was 174 RLU and the “Cefoxitin Concentration 1.6 ug/mL” value (MSSA; [7]) was 176 RLU. For the same compound, the “Cefoxitin Concentration 1.8 ug/mL” value (MSSA; [7]) was 187 RLU, the “Cefoxitin Concentration 2 ug/mL” value (MSSA; [7]) was 181 RLU and the “Cefoxitin Concentration 1.4 ug/mL” value (MSSA; [8]) was 1328 RLU. For the same compound, the “Cefoxitin Concentration 1.6 ug/mL” value (MSSA; [8]) was 812 RLU, the “Cefoxitin Concentration 1.8 ug/mL” value (MSSA; [8]) was 655 RLU and the “Cefoxitin Concentration 2 ug/mL” value (MSSA; [8]) was 404 RLU. For the same compound, the “Cefoxitin Concentration 1.4 ug/mL” value (MSSA; [9]) was 4238 RLU, the “Cefoxitin Concentration 1.6 ug/mL” value (MSSA; [9]) was 1743 RLU and the “Cefoxitin Concentration 1.8 ug/mL” value (MSSA; [9]) was 1099 RLU. For the same compound, the “Cefoxitin Concentration 2 ug/mL” value (MSSA; [9]) was 794 RLU, the “Cefoxitin Concentration 1.4 ug/mL” value (MSSA; [10]) was 336 RLU and the “Cefoxitin Concentration 1.6 ug/mL” value (MSSA; [10]) was 227 RLU. The “Cefoxitin Concentration 1.8 ug/mL” value (MSSA; [10]) was 204 RLU, the “Cefoxitin Concentration 2 ug/mL” value (MSSA; [10]) was 165 RLU and the “Cefoxitin Concentration 1.4 ug/mL” value (MSSA; [11]) was 2274 RLU. For the same compound, the “Cefoxitin Concentration 1.6 ug/mL” value (MSSA; [11]) was 1149 RLU, the “Cefoxitin Concentration 1.8 ug/mL” value (MSSA; [11]) was 402 RLU and the “Cefoxitin Concentration 2 ug/mL” value (MSSA; [11]) was 256 RLU. The “Cefoxitin Concentration 1.4 ug/mL” value (MSSA; [12]) was 6208 RLU, the “Cefoxitin Concentration 1.6 ug/mL” value (MSSA; [12]) was 3172 RLU and the “Cefoxitin Concentration 1.8 ug/mL” value (MSSA; [12]) was 2029 RLU. For the same compound, the “Cefoxitin Concentration 2 ug/mL” value (MSSA; [12]) was 870 RLU, the “Cefoxitin Concentration 1.4 ug/mL” value (MSSA; [13]) was 1277 RLU and the “Cefoxitin Concentration 1.6 ug/mL” value (MSSA; [13]) was 598 RLU. For the same compound, the “Cefoxitin Concentration 1.8 ug/mL” value (MSSA; [13]) was 423 RLU, the “Cefoxitin Concentration 2 ug/mL” value (MSSA; [13]) was 258 RLU and the “Cefoxitin Concentration 1.4 ug/mL” value (MSSA; [14]) was 1438 RLU. The “Cefoxitin Concentration 1.6 ug/mL” value (MSSA; [14]) was 676 RLU, the “Cefoxitin Concentration 1.8 ug/mL” value (MSSA; [14]) was 518 RLU and the “Cefoxitin Concentration 2 ug/mL” value (MSSA; [14]) was 338 RLU. The “Cefoxitin Concentration 1.4 ug/mL” value (MSSA; [15]) was 1883 RLU, the “Cefoxitin Concentration 1.6 ug/mL” value (MSSA; [15]) was 839 RLU and the “Cefoxitin Concentration 1.8 ug/mL” value (MSSA; [15]) was 556 RLU. For the same compound, the “Cefoxitin Concentration 2 ug/mL” value (MSSA; [15]) was 246 RLU, the “Cefoxitin Concentration 1.4 ug/mL” value (MSSA; [16]) was 2753 RLU and the “Cefoxitin Concentration 1.6 ug/mL” value (MSSA; [16]) was 1087 RLU. For the same compound, the “Cefoxitin Concentration 1.8 ug/mL” value (MSSA; [16]) was 441 RLU, the “Cefoxitin Concentration 2 ug/mL” value (MSSA; [16]) was 258 RLU and the “2 HR AB + 2 HR Phage 1.8 ug/mL” value (12600 - MSSA; MSSA detected CFU 156, MRSA 0) was 423 RLU. For the same compound, the “3 HR AB + 1 HR Phage 1.8 ug/mL” value (12600 - MSSA; MSSA detected CFU 156, MRSA 0) was 196 RLU, the “2 HR AB + 2 HR Phage 1.8 ug/mL” value (12600 - MSSA; MSSA detected CFU 318, MRSA 0) was 608 RLU and the “3 HR AB + 1 HR Phage 1.8 ug/mL” value (12600 - MSSA; MSSA detected CFU 318, MRSA 0) was 231 RLU. For the same compound, the “2 HR AB + 2 HR Phage 1.8 ug/mL” value (12600 - MSSA; MSSA detected CFU 636, MRSA 0) was 956 RLU, the “3 HR AB + 1 HR Phage 1.8 ug/mL” value (12600 - MSSA; MSSA detected CFU 636, MRSA 0) was 275 RLU and the “2 HR AB + 2 HR Phage 1.8 ug/mL” value (12600 - MSSA; MSSA detected CFU 1272, MRSA 0) was 1685 RLU. The “3 HR AB + 1 HR Phage 1.8 ug/mL” value (12600 - MSSA; MSSA detected CFU 1272, MRSA 0) was 321 RLU, the “2 HR AB + 2 HR Phage 1.8 ug/mL” value (12600 - MSSA; MSSA detected CFU 2544, MRSA 0) was 4715 RLU and the “3 HR AB + 1 HR Phage 1.8 ug/mL” value (12600 - MSSA; MSSA detected CFU 2544, MRSA 0) was 621 RLU. For the same compound, the “2 HR AB + 2 HR Phage 1.8 ug/mL” value (12600 - MSSA; MSSA detected CFU 5088, MRSA 0) was 8583 RLU, the “3 HR AB + 1 HR Phage 1.8 ug/mL” value (12600 - MSSA; MSSA detected CFU 5088, MRSA 0) was 901 RLU and the “2 HR AB + 2 HR Phage 1.8 ug/mL” value (12600 - MSSA; [17]) was 16340 RLU. For the same compound, the “3 HR AB + 1 HR Phage 1.8 ug/mL” value (12600 - MSSA; [17]) was 1098 RLU, the “effect on positive signal” value (MRSA; 1.8 ug/mL, most of the tested MRSA strains) was “produced a positive signal” and the “Cefoxitin Concentration 1.4 ug/mL” value (MRSA; strain AR0461 MRSA, detected CFU 140) was 9488 RLU. The “Cefoxitin Concentration 2 ug/mL” value (MRSA; strain AR0467 MRSA, detected CFU 198) was 6615 RLU, the “Cefoxitin Concentration 1.8 ug/mL” value (MRSA; strain AR0469 MRSA, detected CFU 473) was 13490 RLU and the “Cefoxitin Concentration 1.6 ug/mL” value (MRSA; [18]) was 2481 RLU. The “Cefoxitin Concentration 1.8 ug/mL” value (MRSA; [18]) was 2046 RLU, the “Cefoxitin Concentration 1.4 ug/mL” value (MRSA; [19]) was 8601 RLU and the “Cefoxitin Concentration 1.6 ug/mL” value (MRSA; [19]) was 5620 RLU. The “Cefoxitin Concentration 1.8 ug/mL” value (MRSA; [19]) was 3239 RLU and the “Cefoxitin Concentration 2 ug/mL” value (MRSA; [19]) was 2385 RLU.
